Source: US20250145601A1, “NOVEL BICYCLIC COMPOUNDS AS RAD51 INHIBITORS” (SATYA THERAPEUTICS, INC., priority 2022, published 2025)

Tested on: MDA MB 231 cells
Test: Antiproliferation assay in MDA MB 231 cells (Cell Titer Glo)
Type: cell-based
Details: MDAMB231 cell line, 9 day treatment; for inhibition at 10 µM: Homo sapiens, MDA-MB-231, 216 h
Experimental: Antiproliferation Assay in MDA MB 231 Cells MDA MB 231 cells were seeded in 96 well plate at a seeding density of 250 cells/well. The cells were allowed to settle overnight under standard incubator conditions (37° C., 5% CO2). Next day treatment with increasing dose of test compounds and reference compounds were done to the respective wells and the cells were further incubated under standard cell culture conditions for another 4 days. On the 5th day, media was replenished with fresh treatment and cells were incubated for a total of 9 day treatment period. On the day of termination, appropriate volume of Cell Titer Glo reagent was added to the treatment (and control) wells and the plates were kept on a plate shaker @300 RPM for 15 min. Luminiscence reading (RLU) was […] RLU is directly proportional to ATP content and is directly related to number of metabolically active cells in the respective well. Calculation: a. Blank Correction: RLU of the Wells Containing No Cells is Considered as Blank and Subtracted from all RLU of the Treated and Control Wells [formula]

[1] = separated enantiomers A/B (Table 3)

## CCC(=O)N1N=C(c2c(C)c3ccsc3[nH]c2=O)CC1c1ccc(OC)cc1 (racemic) [Example 20, 5-(5-(4-Methoxyphenyl)-1-propionyl-4,5-dihydro-1H-pyrazol-3-yl)-4-methylthieno-[2,3-b]pyridin-6(7H)-one]
Racemic compounds (Table 2)
  inhibition at 10 µM: ≥ 50%

## CCC(=O)N1N=C(c2c(C)c3ccsc3[nH]c2=O)CC1c1ccc(Cl)cc1 (racemic) [Example 28, 5-(5-(4-chlorophenyl)-1-propionyl-4,5-dihydro-1H-pyrazol-3-yl)-4-methylthieno[2,3-b]pyridin-6(7H)-one]
Racemic compounds (Table 2)
  inhibition at 10 µM: ≥ 50%

## CCC(=O)N1N=C(c2c(C)c3ccsc3[nH]c2=O)CC1c1ccsc1 (racemic) [Example 33, 4-methyl-5-(1-propionyl-5-(thiophen-3-yl)-4,5-dihydro-1H-pyrazol-3-yl)thieno[2,3-b]pyridin-6(7H)-one]
Racemic compounds (Table 2)
  inhibition at 10 µM: < 50%

## CCC(=O)N1N=C(c2c(C)c3ccsc3[nH]c2=O)CC1c1ccc(C)cc1 (racemic) [Example 37, 4-methyl-5-(1-propionyl-5-(p-tolyl)-4,5-dihydro-1H-pyrazol-3-yl)thieno[2,3-b]pyridin-6(7H)-one]
Racemic compounds (Table 2)
  inhibition at 10 µM: ≥ 50%

## CCC(=O)N1N=C(c2c(C)c3ccsc3[nH]c2=O)CC1c1ccc(C)nc1 (racemic) [Example 45, 4-methyl-5-(5-(6-methylpyridin-3-yl)-1-propionyl-4,5-dihydro-1H-pyrazol-3-yl)thieno[2,3-b]pyridin-6(7H)-one]
Racemic compounds (Table 2)
  inhibition at 10 µM: ≥ 50%

## CCC(=O)N1N=C(c2c(C)c3ccccc3[nH]c2=O)CC1c1ccc(C)cc1 (racemic) [Example 60, 4-methyl-3-(1-propionyl-5-(p-tolyl)-4,5-dihydro-1H-pyrazol-3-yl)quinolin-2(1H)-one]
Racemic compounds (Table 2)
  inhibition at 10 µM: ≥ 50%

## CCC(=O)N1N=C(c2c(C)c3ccsc3[nH]c2=O)CC1c1ccc(C)cc1F (racemic) [Example 66, 5-(5-(2-fluoro-4-methylphenyl)-1-propionyl-4,5-dihydro-1H-pyrazol-3-yl)-4-methylthieno[2,3-b]pyridin-6(7H)-one]
Racemic compounds (Table 2)
  inhibition at 10 µM: ≥ 50%

## CCC(=O)N1N=C(c2c(C)c3ccncc3[nH]c2=O)CC1c1ccc(C)cc1 (racemic) [Example 74, 4-methyl-3-(1-propionyl-5-(p-tolyl)-4,5-dihydro-1H-pyrazol-3-yl)-1,7-naphthyridin-2(1H)-one]
Racemic compounds (Table 2)
  inhibition at 10 µM: ≥ 50%

## CCC(=O)N1N=C(c2c(C)c3ccnc(C)c3[nH]c2=O)CC1c1ccc(C)cc1 (racemic) [Example 78, 4,8-dimethyl-3-(1-propionyl-5-(p-tolyl)-4,5-dihydro-1H-pyrazol-3-yl)-1,7-naphthyridin-2(1H)-one]
Racemic compounds (Table 2)
  inhibition at 10 µM: ≥ 50%

## CCC(=O)N1N=C(c2c(C)c3ccc(Cl)cc3[nH]c2=O)CC1c1ccc(C)cc1 (racemic) [Example 80, 7-chloro-4-methyl-3-(1-propionyl-5-(p-tolyl)-4,5-dihydro-1H-pyrazol-3-yl)quinolin-2(1H)-one]
Racemic compounds (Table 2)
  inhibition at 10 µM: ≥ 50%

## CCC(=O)N1N=C(c2c(C)c3ccc(N4CCN(C)CC4)cc3[nH]c2=O)CC1c1ccc(C)cc1 (racemic) [Example 82, 4-methyl-7-(4-methylpiperazin-1-yl)-3-(1-propionyl-5-(p-tolyl)-4,5-dihydro-1H-pyrazol-3-yl)quinolin-2(1H)-one]
Racemic compounds (Table 2)
  inhibition at 10 µM: ≥ 50%

## CCC(=O)N1N=C(c2c(C)c3ccsc3[nH]c2=O)CC1c1ccc(OC)cc1 (single isomer, unassigned) [Example 20A]
[1]
  inhibition at 10 µM: ≥ 50%

## CCC(=O)N1N=C(c2c(C)c3ccsc3[nH]c2=O)CC1c1ccc(Cl)cc1 (single isomer, unassigned) [Example 28B]
[1]
  inhibition at 10 µM: ≥ 50%

## CCC(=O)N1N=C(c2c(C)c3ccsc3[nH]c2=O)CC1c1ccsc1 (single isomer, unassigned) [Example 33B]
[1]
  inhibition at 10 µM: < 50%

## CCC(=O)N1N=C(c2c(C)c3ccsc3[nH]c2=O)CC1c1ccc(C)cc1 (single isomer, unassigned) [Example 37B]
[1]
  inhibition at 10 µM: ≥ 50%

## CCC(=O)N1N=C(c2c(C)c3ccsc3[nH]c2=O)CC1c1ccc(C)nc1 (single isomer, unassigned) [Example 45A]
[1]
  % inhibition @ 10 μM: ++ (<50% ++)

## CCC(=O)N1N=C(c2c(C)c3ccsc3[nH]c2=O)CC1c1ccc(C)nc1 (single isomer, unassigned) [Example 45B]
[1]
  inhibition at 10 µM: ≥ 50%

## CCC(=O)N1N=C(c2c(C)c3ccccc3[nH]c2=O)CC1c1ccc(C)cc1 (single isomer, unassigned) [Example 60B]
[1]
  inhibition at 10 µM: ≥ 50%

## CCC(=O)N1N=C(c2c(C)c3ccsc3[nH]c2=O)CC1c1ccc(C)cc1F (single isomer, unassigned) [Example 66A]
[1]
  inhibition at 10 µM: ≥ 50%

## CCC(=O)N1N=C(c2c(C)c3ccncc3[nH]c2=O)CC1c1ccc(C)cc1 (single isomer, unassigned) [Example 74A]
[1]
  inhibition at 10 µM: ≥ 50%

## CCC(=O)N1N=C(c2c(C)c3ccnc(C)c3[nH]c2=O)CC1c1ccc(C)cc1 (single isomer, unassigned) [Example 78A]
[1]
  inhibition at 10 µM: < 50%

## CCC(=O)N1N=C(c2c(C)c3ccnc(C)c3[nH]c2=O)CC1c1ccc(C)cc1 (single isomer, unassigned) [Example 78B]
[1]
  % inhibition @ 10 μM: + (≥50% +)

## CCC(=O)N1N=C(c2c(C)c3ccc(Cl)cc3[nH]c2=O)CC1c1ccc(C)cc1 (single isomer, unassigned) [Example 80A]
[1]
  inhibition at 10 µM: < 50%

## CCC(=O)N1N=C(c2c(C)c3ccc(Cl)cc3[nH]c2=O)CC1c1ccc(C)cc1 (single isomer, unassigned) [Example 80B]
[1]
  % inhibition @ 10 μM: + (≥50% +)

## CCC(=O)N1N=C(c2c(C)c3ccc(N4CCN(C)CC4)cc3[nH]c2=O)CC1c1ccc(C)cc1 (single isomer, unassigned) [Example 82A]
[1]
  inhibition at 10 µM: ≥ 50%

## CCC(=O)N1N=C(c2c(C)c3ccccc3[nH]c2=O)C[C@@H]1c1ccc(C)cc1 (stereo in doubt) [Example 60A, rel-(R)-4-methyl-3-(1-propionyl-5-(p-tolyl)-4,5-dihydro-1H-pyrazol-3-yl)quinolin-2-(1H)-one]
[1]
  inhibition at 10 µM: ≥ 50%

## CCC(=O)N1N=C(c2c(C)c3cc(Cl)ccc3[nH]c2=O)CC1c1ccc(OC)cc1 (stereo not drawn) [Example 1, 6-Chloro-3-(5-(4-methoxyphenyl)-1-propionyl-4,5-dihydro-1H-pyrazol-3-yl)-4-methylquinolin-2(1H)-one]
Racemic compounds (Table 2)
  inhibition at 10 µM: ≥ 50%

## COc1ccc(C2CC(c3c(C)c4cc(Cl)ccc4[nH]c3=O)=NN2C(=O)C2CC2)cc1 (stereo not drawn) [Example 2, 6-Chloro-3-(1-(cyclopropanecarbonyl)-5-(4-methoxyphenyl)-4,5-dihydro-1H-pyrazol-3-yl)-4-methylquinolin-2(1H)-one]
Racemic compounds (Table 2)
  inhibition at 10 µM: ≥ 50%

## COc1ccc(C2CC(c3c(C)c4cc(Cl)ccc4[nH]c3=O)=NN2C(=O)C2CCOCC2)cc1 (stereo not drawn) [Example 3, 6-chloro-3-(5-(4-methoxyphenyl)-1-(tetrahydro-2H-pyran-4-carbonyl)-4,5-dihydro-1H-pyrazol-3-yl)-4-methylquinolin-2(1H)-one]
Racemic compounds (Table 2)
  inhibition at 10 µM: ≥ 50%

## COc1ccc(C2CC(c3c(C)c4cc(Cl)ccc4[nH]c3=O)=NN2C(=O)C2CCOC2)cc1 (stereo not drawn) [Example 4, 6-chloro-3-(5-(4-methoxyphenyl)-1-(tetrahydrofuran-3-carbonyl)-4,5-dihydro-1H-pyrazol-3-yl)-4-methylquinolin-2(1H)-one]
Racemic compounds (Table 2)
  inhibition at 10 µM: ≥ 50%
